“Also recorded” adds a separate entry of the source.
What was measured:
wild-type Fyn = wild-type Fyn (Homo sapiens, UniProt P06241); assay: Peptide phosphorylation assay with [γ-32P]ATP (Example 13); format: biochemical; details: purified kinase; read-out: IC50 for inhibition of wild-type Fyn
Description: To identify compounds that would not inhibit any existing cellular kinases, Applicant screened the panel of synthetic pyrazolo pyramidine analogs (1-6) against two closely related purified tyrosine kinases, v-Src and Fyn, in a peptide phosphorylation assay using [γ-^32P]

[1] = test system: NIH3T3 cells expressing v-Src; assay: Anti-phosphotyrosine blots of pyrazolopyrimidine treated NIH3T3 cells (Examples 18-19); format: cell-based; details: FIG. 12B two left lanes
Experimental: Anti-phosphotyrosine blots of pyrazolo pyrimidine (2-6) (25 μM) treated NIH3T3 cells expressing v-Src kinase were performed by lysing cells in modified RIPA buffer according to the method of Coussens et al. (1985) Biol. 2753-2763. Cells were also treated for various times before lysis and antiphosphotyrosine detection. Proteins were separated by 12.5% SDS-PAGE and transferred to Protran BA85 (Schleicher-Schuell). The blot was probed with the antiphosphotyrosine monoclonal antibody 4G10 (obtained from Dr. Brian Druker, Oregon Health Sciences Center) and the bound antibody was detected via enhanced chemiluminescence (Pierce) following treatment with HRP-coupled goat anti-mouse antibody (VWR) according to the manufacturer's instructions.
The assays were performed by making anti-phosphotyrosine blots of pyrazolopyrimidine (26) (25 μM) treated NIH3T3 cells expressing either v-Src or v-Src (I338G) kinases were performed by lysing cells in modified RIPA buffer according to the method of Coussens et al. (1985) Biol. 2753-2763. […]
(§4) The blot was probed with the anti-phosphotyrosine monoclonal antibody 4G10 and the bound antibody was detected via enhanced chemiluminescence (Pierce) following treatment with HRP-coupled goat-anti-mouse antibody (VWR) according to the manufacturer's instructions.

[2] = test system: NIH3T3 cells expressing v-Src (I338G); assay: Anti-phosphotyrosine blots of pyrazolopyrimidine treated NIH3T3 cells (Example 19); format: cell-based
Experimental: The assays were performed by making anti-phosphotyrosine blots of pyrazolopyrimidine (26) (25 μM) treated NIH3T3 cells expressing either v-Src or v-Src (I338G) kinases were performed by lysing cells in modified RIPA buffer according to the method of Coussens et al. (1985) Biol. 2753-2763. Cells were also treated for various times (in a cell culture CO2 incubator) before lysis and anti-phosphotyrosine detection. Proteins were separated by 12.5% SDS-PAGE and transferred to Protran BA85 (Schleicher-Schuell).
as §4

I338G v-Src [3] = assay: biochemical; design: species or system Rous sarcoma virus
I338G v-Src [4] = target: T1, I338G v-Src (Rous sarcoma virus subgroup A, UniProt P00524, DEL77-225/I338G); assay: biochemical
T1 construct: made in house; host or cells: E. coli DH5α (pGEX-KT)

[5] = test system: I338G v-Src transformed NIH-3T3 fibroblasts; assay: Microscopy of transformed fibroblasts (light microscopy, phalloidin-FITC); format: cell-based; details: 100 μM, 48 hours
Experimental: (§1) Non-transformed, WT v-Src transformed, and I338G v-Src transformed NIH-3T3 fibroblasts were grown in DMEM/10% BCS on tissue culture treated slides. v-Src expressing cells were treated with either 1.1% DMSO or 100 μM (^3g) in 1.1% DMSO. After forty-eight hours cells were photographed at 400× magnification on an Nikon TMS light microscope. Immediately following light microscopy, the cells were fixed for twenty minutes in 3.7% formaldehyde/PBS and permeabilized for sixty seconds in 0.2% Triton x-100 in PBS. Permeabilized cells were incubated with 200 ng/ml phalloidin-FITC/PBS for twenty minutes. Slides were rinsed with PBS and polymerized actin was visualized by fluorescence microscopy at 600× magnification on a Zeiss fluorescence microscope.

[6] = test system: WT v-Src transformed NIH-3T3 fibroblasts; assay: as above; format: cell-based; details: 100 μM, 48 hours
Experimental: as §1

T339G Fyn = target: T2, T339G Fyn (Homo sapiens, UniProt P06241, T342G); assay: In vitro kinase inhibition assay; format: biochemical
T2 construct: GST; made in house; host or cells: E. coli DH5α (pGEX-KT)
T2 sequence (P06241 1-534 isoform P06241-2 T339G): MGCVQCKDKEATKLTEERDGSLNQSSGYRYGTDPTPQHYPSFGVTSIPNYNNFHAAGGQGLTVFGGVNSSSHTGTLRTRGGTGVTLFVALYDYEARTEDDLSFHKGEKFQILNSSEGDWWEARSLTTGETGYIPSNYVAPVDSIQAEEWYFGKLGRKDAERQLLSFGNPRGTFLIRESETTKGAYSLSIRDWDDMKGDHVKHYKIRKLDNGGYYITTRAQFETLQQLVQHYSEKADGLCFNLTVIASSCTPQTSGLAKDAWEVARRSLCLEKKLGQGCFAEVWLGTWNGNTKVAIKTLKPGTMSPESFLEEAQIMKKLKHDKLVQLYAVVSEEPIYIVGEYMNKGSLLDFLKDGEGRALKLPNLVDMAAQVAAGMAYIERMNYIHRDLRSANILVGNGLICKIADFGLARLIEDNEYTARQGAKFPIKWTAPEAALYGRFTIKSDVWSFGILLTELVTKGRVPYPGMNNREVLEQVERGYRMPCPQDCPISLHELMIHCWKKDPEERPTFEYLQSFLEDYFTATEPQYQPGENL

[7] = test system: I338G v-Src transformed NIH3T3 cells; assay: Inhibition of v-Src in NIH3T3 fibroblasts (phosphotyrosine blot); format: cell-based
Experimental: (§2) Non-transformed NIH3T3 cells, WT v-Src transformed NIH3T3 cells, and I338G v-Src transformed NIH3T3 cells were incubated at 37° C. with 1.1% DMSO or 100 μM (3g) in 1.1% DMSO. After twelve hours, the cells were washed with PBS and lysed (lysis buffer: 1% Triton x-100, 50 mM tris (pH 7.4), 2 mM EDTA, 150 mM NaCl, […], 2 mM sodium orthovanadate, 10 mg/ml leupeptin, 10 mg/ml apoprotin). The lysate was clarified by centrifugation at 13,000 rpm for fifteen minutes. Lysate protein concentrations were normalized and equal volumes of the lysate were resolved electrophoretically and analyzed for phosphotyrosine content as described above.

[8] = test system: WT v-Src transformed NIH3T3 cells; assay: as above; format: cell-based; details: 100 μM, twelve hours
Experimental: as §2

PKCδ = target: T3, PKCδ (Homo sapiens, UniProt Q05655); assay: In vitro kinase inhibition assay; format: biochemical; design: dose or concentration left out as unconfirmed
T3 construct: 6-His; made in house; host or cells: Bac-to-Bac baculovirus system (pFastBac B vector)
T3 sequence (Q05655 whole entry): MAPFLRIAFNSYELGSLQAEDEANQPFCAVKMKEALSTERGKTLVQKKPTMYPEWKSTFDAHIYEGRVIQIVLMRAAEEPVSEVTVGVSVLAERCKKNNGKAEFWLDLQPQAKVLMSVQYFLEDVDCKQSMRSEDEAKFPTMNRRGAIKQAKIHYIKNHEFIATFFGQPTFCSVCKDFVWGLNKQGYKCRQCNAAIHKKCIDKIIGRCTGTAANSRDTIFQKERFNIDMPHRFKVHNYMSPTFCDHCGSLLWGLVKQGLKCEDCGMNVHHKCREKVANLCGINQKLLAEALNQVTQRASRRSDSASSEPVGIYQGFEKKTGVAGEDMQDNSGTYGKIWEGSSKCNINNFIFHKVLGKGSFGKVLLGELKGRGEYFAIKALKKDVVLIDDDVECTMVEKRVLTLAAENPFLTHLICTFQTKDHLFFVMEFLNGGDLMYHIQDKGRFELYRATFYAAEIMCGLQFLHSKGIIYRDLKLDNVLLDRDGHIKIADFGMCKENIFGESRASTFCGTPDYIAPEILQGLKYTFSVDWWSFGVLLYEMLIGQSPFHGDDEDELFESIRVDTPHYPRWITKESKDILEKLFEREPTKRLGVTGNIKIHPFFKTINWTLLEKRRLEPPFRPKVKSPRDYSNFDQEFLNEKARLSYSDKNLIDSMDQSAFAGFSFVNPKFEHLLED
Experimental: (§3) IC50's for non-src family kinases were measured equivalently with the following exceptions. […] An optimized Abl substrate, […] (SEQ ID NO: 18), 133 mg/ml) was used for Abl assays.

PKA = target: T4, PKA (Homo sapiens, UniProt P17612); assay: In vitro kinase inhibition assay; format: biochemical; details: concentrations up to 300 mM
T4 construct: purchased Pierce
Experimental: as §3

Sequence of wild-type Fyn (P06241 whole entry, species assumed): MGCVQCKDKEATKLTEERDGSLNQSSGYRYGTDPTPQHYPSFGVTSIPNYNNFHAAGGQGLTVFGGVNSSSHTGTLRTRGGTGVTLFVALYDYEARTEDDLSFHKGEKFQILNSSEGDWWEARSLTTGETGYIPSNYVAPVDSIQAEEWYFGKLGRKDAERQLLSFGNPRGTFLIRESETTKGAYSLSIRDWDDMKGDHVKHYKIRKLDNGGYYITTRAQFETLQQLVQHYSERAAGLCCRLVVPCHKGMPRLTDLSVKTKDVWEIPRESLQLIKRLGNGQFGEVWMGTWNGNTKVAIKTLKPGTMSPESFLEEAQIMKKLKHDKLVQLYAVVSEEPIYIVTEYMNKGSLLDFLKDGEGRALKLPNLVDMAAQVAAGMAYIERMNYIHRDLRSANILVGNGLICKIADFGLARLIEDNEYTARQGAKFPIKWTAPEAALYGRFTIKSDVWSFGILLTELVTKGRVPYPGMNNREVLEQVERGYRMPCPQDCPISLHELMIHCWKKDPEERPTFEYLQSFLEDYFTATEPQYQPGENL

For CC(C)(C)n1nc(-c2ccccc2)c2c(NC(=O)C3CCCC3)ncnc21 [Analog 3b, 4-cyclopentylamido-1-tert-butyl-3-phenylpyrazolo[3,4]pyrimidine], the IC50 (wild-type Fyn) was over 400000 nM, the phosphoprotein band pattern [1] was “does not inhibit wild type v-Src kinase” and the “36 kDa phosphoprotein band” value ([2]; 100 μM) was “lost after treatment”. For the same compound, the “inhibitor concentration at which phosphorylation of the 36 kDa band reappears” value ([2]; inhibitor diluted) was under 5 pM.
With CC(C)(C)c1ccc(C(=O)Nc2ncnc3c2c(-c2ccccc2)nn3C(C)(C)C)cc1 [Analog 3g, 4-(p-tert-butyl)benzamido-1-tert-butyl-3-phenylpyrazolo[3,4-d]pyrimidine] the “selectivity for engineered v-Src over WT Fyn” value (I338G v-Src [3]; I338G v-Src vs WT Fyn) was “over 700 times”, the “selectivity for mutant v-Src as compared to wild type” value (I338G v-Src [3]; I338G v-Src vs WT v-Src) was “at least a thousand-fold” and the IC50 (I338G v-Src [4]) was 430 nM. The Ki (I338G v-Src [4]) was about 400 nM, the mode of inhibition (I338G v-Src [4]; Lineweaver-Burk analysis) was “competitively with respect to ATP” and the “polymerized actin pattern (phalloidin-FITC)” value ([5]; fluorescence microscopy) was “defined polymerized actin strings; also recorded: selectively regain actin stress fibers”. For the same compound, the cell morphology ([5]; light microscopy) was “dramatic changes in cell morphology which are consistent with the reversal of transformation; also recorded: selectively acquire a flattened morphology”, the “polymerized actin pattern (phalloidin-FITC)” value ([6]; fluorescence microscopy) was “indistinguishable from untreated WT cells” and the cell morphology ([6]; light microscopy) was “prototypical rounded morphology and overlapping growth patterns of transformed cells”. The IC50 (T339G Fyn) was 830 nM, the “selectivity for T339G Fyn over WT Fyn” value (T339G Fyn) was “greater than 300 fold” and the “cellular IC50 relative to the in vitro value” [7] was “roughly one-hundred times”. The “cellular level of phosphotyrosine” value ([7]; 100 μM, twelve hours) was “moderate overall decrease”, the “tyrosine phosphorylation of p36” value ([7]; 100 μM, twelve hours) was “dramatic diminution; also recorded: blocks p36 phosphorylation” and the IC50 ([7]; Mus musculus, NIH3T3, read-out: IC50 for p36 phosphotyrosine signal) was 50000 nM. The “tyrosine phosphorylation in WT v-Src infected cells” value [8] was “no loss of tyrosine phosphorylation”, the “inhibition of PKCδ” value (PKCδ) was “not detectably inhibited” and the “inhibition of PKA” value (PKA) was “not detectably inhibited”.
